{"source": "paper PMC10861881", "about": "(Proceedings of the National Academy of Sciences of the …, 2024)", "key": {"[1]": {"tested_on": "p-ERK (Tyr202/204) in SNU-16 cells", "test": "SNU-16 cellular PD assay, p-ERK HTRF", "format": "cell-based", "conditions": "Homo sapiens, SNU-16, 2 h, read-out: SNU16 PD IC50"}, "ELogD": {"test": "ELogD", "format": "physicochemical", "conditions": "pH 7.4"}, "[2]": {"test": "Thermodynamic solubility FaSSIF/SGF", "format": "physicochemical", "conditions": "thermodynamic from solid"}, "[3]": {"test": "Plasma protein binding, mouse", "format": "in vitro ADME", "conditions": "pooled plasma"}, "[4]": {"test": "Plasma protein binding, rat", "format": "in vitro ADME", "conditions": "Sprague-Dawley, pooled plasma"}, "[5]": {"test": "Plasma protein binding, dog", "format": "in vitro ADME", "conditions": "beagle, pooled plasma"}, "[6]": {"test": "Plasma protein binding, cynomolgus monkey", "format": "in vitro ADME", "conditions": "pooled plasma"}, "[7]": {"test": "Plasma protein binding, human", "format": "in vitro ADME", "conditions": "pooled plasma"}, "[8]": {"test": "Hepatocyte intrinsic clearance, mouse", "format": "in vitro ADME", "conditions": "hepatocytes"}, "[9]": {"test": "Hepatocyte intrinsic clearance, rat", "format": "in vitro ADME", "conditions": "hepatocytes"}, "[10]": {"test": "Hepatocyte intrinsic clearance, dog", "format": "in vitro ADME", "conditions": "hepatocytes"}, "[11]": {"test": "Hepatocyte intrinsic clearance, cynomolgus monkey", "format": "in vitro ADME", "conditions": "hepatocytes"}, "[12]": {"test": "Hepatocyte intrinsic clearance, human", "format": "in vitro ADME", "conditions": "hepatocytes"}, "PK study IV/PO, mouse": {"test": "PK study IV/PO, mouse", "format": "in vivo"}, "PK study IV/PO, rat": {"test": "PK study IV/PO, rat", "format": "in vivo"}, "PK study IV/PO, dog": {"test": "PK study IV/PO, dog", "format": "in vivo"}, "[13]": {"test": "PK study IV/PO, cynomolgus monkey", "format": "in vivo"}, "pFGFR2 (Y653/654)": {"tested_on": "pFGFR2 (Y653/654)", "test": "Tumor PD", "format": "in vivo, mouse", "conditions": "SNU-16 xenograft, BALB/c nude mice, oral 5 and 10 mg/kg twice daily groups, 2 h postdose"}, "[14]": {"test": "Stability in plasma and blood", "format": "in vitro ADME", "conditions": "plasma of all species, 5 μM, 37 °C, 18 h"}, "MEK5": {"tested_on": "MEK5", "conditions": "test concentration 500 nmol/L; cited from earlier work"}, "MKNK2": {"tested_on": "MKNK2", "conditions": "test concentration 500 nmol/L; cited from earlier work"}, "[15]": {"tested_on": "FGFR2 fusion-positive cholangiocarcinoma", "conditions": "patients, across dose levels; cited from earlier work"}, "CACO2 permeability": {"test": "CACO2 permeability", "conditions": "human, Caco-2"}}, "data": [{"smiles": "C=C(C)C(=O)Nc1ccc(-c2c(-c3ccc(Oc4nccc(C)n4)c(F)c3)c3c(N)ncnc3n2C)cc1", "note": "[Lirafugratinib]", "values": [{"measurement": "IC50", "setting": "[1]", "result": 3, "unit": "nM"}, {"measurement": "ELogD@7.4", "setting": "ELogD", "result": "4.3/510"}, {"measurement": "solubility", "setting": "[2]; FaSSIF", "result": 49.3, "unit": "µM"}, {"measurement": "solubility", "setting": "[2]; SGF, simulated gastric fluid", "result": 540, "unit": "µM"}, {"measurement": "fraction unbound at 18 h, 5 μM", "setting": "[3]", "result": 0.0082}, {"measurement": "fraction unbound at 18 h, 5 μM", "setting": "[4]", "result": 0.016}, {"measurement": "fraction unbound at 18 h, 5 μM", "setting": "[5]", "result": 0.023}, {"measurement": "fraction unbound at 18 h, 5 μM", "setting": "[6]", "result": 0.002}, {"measurement": "fraction unbound at 18 h, 5 μM", "setting": "[7]", "result": 0.0014}, {"measurement": "hepatocyte CLint", "setting": "[8]", "result": 29, "unit": "µL/min/1e6 cells"}, {"measurement": "hepatocyte CLint", "setting": "[9]", "result": 30, "unit": "µL/min/1e6 cells"}, {"measurement": "hepatocyte CLint", "setting": "[10]", "result": 19, "unit": "µL/min/1e6 cells"}, {"measurement": "hepatocyte CLint", "setting": "[11]", "result": 6.5, "unit": "µL/min/1e6 cells"}, {"measurement": "hepatocyte CLint", "setting": "[12]", "result": "< 1", "unit": "µL/min/1e6 cells"}, {"measurement": "Vd", "setting": "PK study IV/PO, mouse; BALB/c nude, plasma, iv", "result": 0.42, "unit": "L/kg"}, {"measurement": "clearance", "setting": "PK study IV/PO, mouse; BALB/c nude, plasma, iv", "result": 4.4, "unit": "mL/min/kg"}, {"measurement": "half-life", "setting": "PK study IV/PO, mouse; BALB/c nude, plasma, iv", "result": 66, "unit": "min"}, {"measurement": "bioavailability", "setting": "PK study IV/PO, mouse; BALB/c nude, plasma, po", "result": 58, "unit": "%"}, {"measurement": "IV CLu mouse", "setting": "PK study IV/PO, mouse; IV, unbound", "result": 538, "unit": "mL/min/kg"}, {"measurement": "IV CLu rat", "setting": "PK study IV/PO, rat; IV, unbound", "result": "3,813 mL/min/kg"}, {"measurement": "Vd", "setting": "PK study IV/PO, rat; Sprague-Dawley, in vivo, iv", "result": 0.98, "unit": "L/kg"}, {"measurement": "half-life", "setting": "PK study IV/PO, rat; Sprague-Dawley, in vivo, iv", "result": 11.4, "unit": "min"}, {"measurement": "bioavailability", "setting": "PK study IV/PO, rat; Sprague-Dawley, in vivo, po", "result": 18, "unit": "%"}, {"measurement": "IV CLu dog", "setting": "PK study IV/PO, dog; IV, unbound", "result": "1,200 mL/min/kg"}, {"measurement": "Vd", "setting": "PK study IV/PO, dog; beagle, plasma, iv", "result": 1.3, "unit": "L/kg"}, {"measurement": "clearance", "setting": "PK study IV/PO, dog; beagle, plasma, iv", "result": 28, "unit": "mL/min/kg"}, {"measurement": "half-life", "setting": "PK study IV/PO, dog; beagle, plasma, iv", "result": 33, "unit": "min"}, {"measurement": "bioavailability", "setting": "PK study IV/PO, dog; beagle, plasma, po", "result": 53, "unit": "%"}, {"measurement": "IV CLu cynomolgus monkey", "setting": "[13]; IV, unbound", "result": "1,100 mL/min/kg"}, {"measurement": "Vd", "setting": "[13]; plasma, iv", "result": 0.26, "unit": "L/kg"}, {"measurement": "clearance", "setting": "[13]; plasma, iv", "result": 2.2, "unit": "mL/min/kg"}, {"measurement": "half-life", "setting": "[13]; plasma, iv", "result": 84, "unit": "min"}, {"measurement": "bioavailability", "setting": "[13]; plasma, po", "result": 47, "unit": "%"}, {"measurement": "modulation of phosphorylated FGFR2 (pFGFR2) in tumor", "setting": "pFGFR2 (Y653/654)", "result": "complete suppression"}, {"measurement": "stability in plasma under PPB assay conditions", "setting": "[14]", "result": "stable"}, {"measurement": "inhibition of MEK5 in kinome panel", "setting": "MEK5", "result": 92.4, "unit": "%"}, {"measurement": "inhibition of MKNK2 in kinome panel", "setting": "MKNK2", "result": 89, "unit": "%"}, {"measurement": "adverse effects occurring with treatment", "setting": "[15]", "result": "minimal hyperphosphatemia and diarrhea"}, {"measurement": "Papp A→B", "setting": "CACO2 permeability", "result": 5.3, "unit": "×10⁻⁶ cm/s"}, {"measurement": "Papp B→A", "setting": "CACO2 permeability", "result": 6.8, "unit": "×10⁻⁶ cm/s"}]}]}
